One test deals with IKKε (Homo sapiens (Human), UniProt Q14164). Description: IKKε TR-FRET enzymatic assay. Type of test: biochemical. To be noted: read-out: IKKe IC50. (In general: Time-resolved FRET reads energy transfer from a long-lived donor to a nearby acceptor.)
The next test deals with hJAK2 (Homo sapiens (Human), UniProt O60674). In words: hJAK2 LANCE TR-FRET enzymatic assay. Type of test: biochemical. As to conditions: read-out: JAK2 IC50.
Another test addresses TBK1 (Homo sapiens (Human), UniProt Q9UHD2). Description: TBK1 TR-FRET enzymatic assay.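 Note: phosphorylation of a biotinylated Ser/Thr peptide by purified full-length recombinant TBK1, read by TR-FRET after 240 min at 25 °C, IC50 is the geometric mean of at least four runs.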

IKKε, sequence (Q14164 whole entry): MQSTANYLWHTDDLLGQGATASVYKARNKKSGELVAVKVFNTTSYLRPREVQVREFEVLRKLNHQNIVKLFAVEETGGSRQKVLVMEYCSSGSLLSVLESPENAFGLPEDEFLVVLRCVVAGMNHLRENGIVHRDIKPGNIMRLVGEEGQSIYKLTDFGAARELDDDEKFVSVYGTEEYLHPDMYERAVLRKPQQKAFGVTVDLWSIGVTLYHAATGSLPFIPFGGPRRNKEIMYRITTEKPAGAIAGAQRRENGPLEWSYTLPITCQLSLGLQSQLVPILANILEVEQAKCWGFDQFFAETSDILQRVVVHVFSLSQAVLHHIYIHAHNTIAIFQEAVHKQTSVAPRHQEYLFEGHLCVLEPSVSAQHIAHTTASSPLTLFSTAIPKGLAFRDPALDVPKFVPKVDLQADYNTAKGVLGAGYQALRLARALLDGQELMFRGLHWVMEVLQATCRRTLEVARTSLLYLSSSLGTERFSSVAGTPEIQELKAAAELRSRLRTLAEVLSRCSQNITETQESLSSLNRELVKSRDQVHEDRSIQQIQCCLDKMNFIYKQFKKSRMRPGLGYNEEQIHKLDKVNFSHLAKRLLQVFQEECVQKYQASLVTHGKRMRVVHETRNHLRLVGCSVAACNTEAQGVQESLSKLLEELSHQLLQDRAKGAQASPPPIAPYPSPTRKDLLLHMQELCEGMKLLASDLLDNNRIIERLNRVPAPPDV
hJAK2, sequence (O60674 whole entry): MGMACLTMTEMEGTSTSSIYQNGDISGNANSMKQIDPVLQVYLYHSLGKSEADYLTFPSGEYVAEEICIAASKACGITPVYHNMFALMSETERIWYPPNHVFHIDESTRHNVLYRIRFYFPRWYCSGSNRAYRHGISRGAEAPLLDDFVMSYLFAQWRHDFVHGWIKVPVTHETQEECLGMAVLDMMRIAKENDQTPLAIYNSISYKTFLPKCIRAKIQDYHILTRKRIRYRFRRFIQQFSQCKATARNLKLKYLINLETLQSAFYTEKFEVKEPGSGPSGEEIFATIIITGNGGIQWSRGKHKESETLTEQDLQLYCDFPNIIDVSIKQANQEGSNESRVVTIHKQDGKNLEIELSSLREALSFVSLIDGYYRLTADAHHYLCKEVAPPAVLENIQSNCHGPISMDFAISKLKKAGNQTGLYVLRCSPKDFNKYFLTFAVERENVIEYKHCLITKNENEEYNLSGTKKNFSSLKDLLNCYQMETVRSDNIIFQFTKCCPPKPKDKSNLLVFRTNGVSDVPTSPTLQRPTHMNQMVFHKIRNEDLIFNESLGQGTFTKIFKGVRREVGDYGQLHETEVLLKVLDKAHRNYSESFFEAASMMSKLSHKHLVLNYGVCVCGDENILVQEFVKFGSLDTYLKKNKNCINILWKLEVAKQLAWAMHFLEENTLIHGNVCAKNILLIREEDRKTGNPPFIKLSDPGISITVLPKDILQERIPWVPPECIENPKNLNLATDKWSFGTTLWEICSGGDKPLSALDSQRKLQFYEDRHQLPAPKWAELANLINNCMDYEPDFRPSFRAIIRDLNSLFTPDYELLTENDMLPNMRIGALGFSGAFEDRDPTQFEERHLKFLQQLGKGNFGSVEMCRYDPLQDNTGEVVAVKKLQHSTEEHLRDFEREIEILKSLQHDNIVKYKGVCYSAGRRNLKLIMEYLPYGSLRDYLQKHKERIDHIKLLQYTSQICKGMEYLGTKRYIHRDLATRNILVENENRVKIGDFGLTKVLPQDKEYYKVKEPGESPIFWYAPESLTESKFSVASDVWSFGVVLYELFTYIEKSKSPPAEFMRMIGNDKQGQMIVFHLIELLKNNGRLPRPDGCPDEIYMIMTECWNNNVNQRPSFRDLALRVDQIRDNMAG
TBK1, sequence (Q9UHD2 whole entry): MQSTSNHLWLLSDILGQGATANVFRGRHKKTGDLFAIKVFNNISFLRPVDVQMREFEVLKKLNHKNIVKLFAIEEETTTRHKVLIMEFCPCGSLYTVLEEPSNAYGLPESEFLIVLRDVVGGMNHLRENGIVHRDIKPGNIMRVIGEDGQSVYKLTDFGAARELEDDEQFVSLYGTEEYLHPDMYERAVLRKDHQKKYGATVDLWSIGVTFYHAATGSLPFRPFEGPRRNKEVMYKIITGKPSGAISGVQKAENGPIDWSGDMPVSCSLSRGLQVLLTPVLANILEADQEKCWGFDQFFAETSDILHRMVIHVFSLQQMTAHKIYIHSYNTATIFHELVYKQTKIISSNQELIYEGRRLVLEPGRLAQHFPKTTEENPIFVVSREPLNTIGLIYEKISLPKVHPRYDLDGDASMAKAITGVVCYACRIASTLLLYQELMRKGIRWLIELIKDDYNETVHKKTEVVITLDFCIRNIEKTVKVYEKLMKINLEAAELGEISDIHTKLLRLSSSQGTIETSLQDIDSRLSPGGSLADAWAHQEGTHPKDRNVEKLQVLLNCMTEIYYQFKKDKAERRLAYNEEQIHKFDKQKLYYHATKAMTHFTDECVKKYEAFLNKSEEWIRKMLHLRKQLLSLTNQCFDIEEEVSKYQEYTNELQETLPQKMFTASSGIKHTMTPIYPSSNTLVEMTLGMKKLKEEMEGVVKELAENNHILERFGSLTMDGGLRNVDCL

With `N#Cc1cc(-c2ncnc(Nc3ccc(N4CCN(C5COC5)CC4)cc3)n2)ccc1N1CCC2(CCOCC2)C1` [Example 212, 5-(4-((4-(4-(oxetan-3-yl)piperazin-1-yl)phenyl)amino)-1,3,5-triazin-2-yl)-2-(8-oxa-2-azaspiro[4.5]decan-2-yl)benzonitrile], the IC50 on IKKε worked out at 63 nM; on hJAK2 it was 137 nM; at TBK1 it was 29 nM.

In the case of `N#Cc1cc(-c2ncnc(Nc3ccc(N4CCN(C5COC5)CC4)cc3)n2)ccc1N1CCC2(CCOC2)CC1` [Example 213, 5-(4-((4-(4-(oxetan-3-yl)piperazin-1-yl)phenyl)amino)-1,3,5-triazin-2-yl)-2-(2-oxa-8-azaspiro[4.5]decan-8-yl)benzonitrile], the values for the IC50 on IKKε, at hJAK2 and against TBK1 were 14 nM, ≥ 1000 nM and 3 nM, respectively.

As for `N#Cc1cc(-c2ncnc(Nc3ccc(N4CCN(C5COC5)CC4)cc3)n2)ccc1N1CCC2(CCO2)CC1` [Example 214, 5-(4-((4-(4-(oxetan-3-yl)piperazin-1-yl)phenyl)amino)-1,3,5-triazin-2-yl)-2-(1-oxa-7-azaspiro[3.5]nonan-7-yl)benzonitrile], the IC50 on IKKε was 43 nM; at hJAK2, 301 nM; against TBK1, 12 nM.

Turning to `N#Cc1cccc(-c2ncnc(Nc3ccc(N4CCN(C5COC5)CC4)cc3)n2)c1` [Example 215, 3-(4-((4-(4-(oxetan-3-yl)piperazin-1-yl)phenyl)amino)-1,3,5-triazin-2-yl)benzonitrile], the results for the IC50 on IKKε, on hJAK2 and at TBK1 were ≥ 1000 nM, 657 nM and 1000 nM, respectively.

For `N#Cc1cc(-c2ncnc(Nc3ccc(N4CCN(C5COC5)CC4)cc3)n2)ccc1OC1CCCCC1` [Example 217, 2-(cyclohexyloxy)-5-(4-((4-(4-(oxetan-3-yl)piperazin-1-yl)phenyl)amino)-1,3,5-triazin-2-yl)benzonitrile], the half-maximal inhibitory concentration (IC50) at IKKε was found to be 14 nM; on hJAK2 it was 980 nM; at TBK1 it was 4 nM.

Regarding `C[C@@H](O)C(=O)N1CCC(Oc2ccc(-c3ncnc(Nc4ccc(N5CCN(C6COC6)CC5)cc4)n3)cc2C#N)CC1` [Example 219, (R)-2-((1-(2-hydroxypropanoyl)piperidin-4-yl)oxy)-5-(4-((4-(4-(oxetan-3-yl)piperazin-1-yl)phenyl)amino)-1,3,5-triazin-2-yl)benzonitrile], the results for the half-maximal inhibitory concentration (IC50) at IKKε, on hJAK2 and on TBK1 were 126 nM, 626 nM and 44 nM, respectively.

`C[C@H]1C[C@H](Oc2ccc(-c3ncnc(Nc4ccc(N5CCN(C6COC6)CC5)cc4)n3)cc2C#N)CCN1C(=O)CO` [Example 221, 2-(((2S,4R)-1-(2-hydroxyacetyl)-2-methylpiperidin-4-yl)oxy)-5-(4-((4-(4-(oxetan-3-yl)piperazin-1-yl)phenyl)amino)-1,3,5-triazin-2-yl)benzonitrile]: the IC50 amounted to 68 nM at IKKε, 488 nM on hJAK2 and 18 nM against TBK1.

In the case of `C[C@@H]1C[C@H](Oc2ccc(-c3ncnc(Nc4ccc(N5CCN(C6COC6)CC5)cc4)n3)cc2C#N)CCN1C(=O)CO` [Example 222, 2-(((2R,4R)-1-(2-hydroxyacetyl)-2-methylpiperidin-4-yl)oxy)-5-(4-((4-(4-(oxetan-3-yl)piperazin-1-yl)phenyl)amino)-1,3,5-triazin-2-yl)benzonitrile], the 50% inhibitory concentration (IC50) on IKKε amounted to 60 nM; at hJAK2 it was 182 nM; on TBK1, 21 nM.

Regarding `C[C@H](O)C(=O)N1CCC(Oc2ccc(-c3ncnc(Nc4ccc(N5CCO[C@@H](CO)C5)cc4)n3)cc2C#N)CC1` [Example 225, 5-(4-((4-((R)-2-(hydroxymethyl)morpholino)phenyl)amino)-1,3,5-triazin-2-yl)-2-((1-((S)-2-hydroxypropanoyl)piperidin-4-yl)oxy)benzonitrile], the half-maximal inhibitory concentration (IC50) at IKKε is 22 nM; at hJAK2, ≥ 1000 nM; on TBK1, 8 nM.

With `N#Cc1cc(-c2ncnc(Nc3ccc(N4CCO[C@@H](CO)C4)cc3)n2)ccc1OC1CCNCC1(F)F` (stereo partly drawn) [Example 226, 2-((3,3-difluoropiperidin-4-yl)oxy)-5-(4-((4-((R)-2-(hydroxymethyl)morpholino)phenyl)amino)-1,3,5-triazin-2-yl)benzonitrile], the results for the IC50 on IKKε, on hJAK2 and at TBK1 were 29 nM, 311 nM and 5 nM, respectively.

For the compound `N#Cc1cc(-c2ncnc(Nc3ccc(N4CCO[C@@H](CO)C4)cc3)n2)ccc1OC1CCN(C(=O)CO)CC1` [Example 227, (R)-2-((1-(2-hydroxyacetyl)piperidin-4-yl)oxy)-5-(4-((4-(2-(hydroxymethyl)morpholino)phenyl)amino)-1,3,5-triazin-2-yl)benzonitrile], the IC50 stood at 4 nM on IKKε, 333 nM on hJAK2 and 2 nM at TBK1.

For the compound `C[C@H](O)C(=O)N1CCC(Oc2ccc(-c3ncnc(Nc4ccc(N5CCO[C@@H](CO)C5)cc4)n3)cc2C#N)C(F)(F)C1` (stereo partly drawn) [Example 228, 2-((3,3-difluoro-1-((S)-2-hydroxypropanoyl)piperidin-4-yl)oxy)-5-(4-((4-((R)-2-(hydroxymethyl)morpholino)phenyl)amino)-1,3,5-triazin-2-yl)benzonitrile], the IC50 on IKKε was found to be 2 nM; on hJAK2 it was 206 nM; at TBK1, 1 nM.

Turning to `CC(=O)N1CC[C@H](Oc2ccc(-c3ncnc(Nc4ccc(N5CCO[C@@H](CO)C5)cc4)n3)cc2C#N)C(F)(F)C1` [Example 230, 2-(((5)-1-acetyl-3,3-difluoropiperidin-4-yl)oxy)-5-(4-((4-((R)-2-(hydroxymethyl)morpholino)phenyl)amino)-1,3,5-triazin-2-yl)benzonitrile], the IC50 at IKKε came to 2 nM; at hJAK2 it was 233 nM; against TBK1, 4 nM.

On to `C[C@H](O)C(=O)N1CC[C@H](Oc2ccc(-c3ncnc(Nc4ccc(N5CCO[C@@H](CO)C5)cc4)n3)cc2C#N)[C@H](F)C1` [Example 231, 2-(((3R,4S)-3-fluoro-1-((S)-2-hydroxypropanoyl)piperidin-4-yl)oxy)-5-(4-((4-((R)-2-(hydroxymethyl)morpholino)phenyl)amino)-1,3,5-triazin-2-yl)benzonitrile], for which the IC50 on IKKε was 1 nM; at hJAK2, 486 nM; at TBK1, 3 nM.

Take `N#Cc1cc(-c2ncnc(Nc3ccc(N4CCO[C@H](CO)C4)cc3)n2)ccc1O[C@H]1CCN(C(=O)CO)C[C@H]1F` [Example 232, 2-(((3R,4S)-3-fluoro-1-(2-hydroxyacetyl)piperidin-4-yl)oxy)-5-(4-((4-((S)-2-(hydroxymethyl)morpholino)phenyl)amino)-1,3,5-triazin-2-yl)benzonitrile]: the IC50 was 1 nM at IKKε, 128 nM on hJAK2 and 2 nM on TBK1.

Turning to `C[C@H](O)C(=O)N1CC[C@H](Oc2ccc(-c3ncnc(Nc4ccc(N5CCO[C@H](CO)C5)cc4)n3)cc2C#N)[C@H](F)C1` [Example 233, 2-(((3R,4S)-3-fluoro-1-((S)-2-hydroxypropanoyl)piperidin-4-yl)oxy)-5-(4-((4-((S)-2-(hydroxymethyl)morpholino)phenyl)amino)-1,3,5-triazin-2-yl)benzonitrile], the IC50 on IKKε is 1 nM; at hJAK2, 333 nM; against TBK1, 2 nM.

For `N#Cc1cc(-c2ncnc(Nc3ccc(N4CCN(C5COC5)CC4)cc3)n2)ccc1O[C@@H]1CCNC[C@H]1F` [Example 236, 2-(((3R,4R)-3-fluoropiperidin-4-yl)oxy)-5-(4-((4-(4-(oxetan-3-yl)piperazin-1-yl)phenyl)amino)-1,3,5-triazin-2-yl)benzonitrile], the concentration for half-maximal inhibition (IC50) at IKKε was found to be 233 nM; on hJAK2 it was 723 nM; against TBK1, 58 nM.

Turning to `N#Cc1cc(-c2ncnc(Nc3ccc(N4CCN(C5COC5)CC4)cc3)n2)ccc1O[C@H]1CCNC[C@H]1F` [Example 239, 2-(((3R,4S)-3-fluoropiperidin-4-yl)oxy)-5-(4-((4-(4-(oxetan-3-yl)piperazin-1-yl)phenyl)amino)-1,3,5-triazin-2-yl)benzonitrile], the IC50 at IKKε was found to be 59 nM; at hJAK2, 409 nM; at TBK1, 8 nM.

Take `N#Cc1cc(-c2ncnc(Nc3ccc(N4CCN(C5COC5)CC4)c(F)c3)n2)ccc1O[C@H]1CCN(C(=O)CO)C[C@H]1F` [Example 240, 2-(((3R,4S)-3-fluoro-1-(2-hydroxyacetyl)piperidin-4-yl)oxy)-5-(4-((3-fluoro-4-(4-(oxetan-3-yl)piperazin-1-yl)phenyl)amino)-1,3,5-triazin-2-yl)benzonitrile]: the half-inhibitory concentration (IC50) at IKKε is 1 nM; at hJAK2, 199 nM; against TBK1, 1 nM.

As to `C[C@@H]1CN(C2COC2)CCN1c1ccc(Nc2ncnc(-c3ccc(O[C@H]4CCN(C(=O)CO)C[C@H]4F)c(C#N)c3)n2)cc1` [Example 242, 2-(((3R,4S)-3-fluoro-1-(2-hydroxyacetyl)piperidin-4-yl)oxy)-5-(4-((4-((R)-2-methyl-4-(oxetan-3-yl)piperazin-1-yl)phenyl)amino)-1,3,5-triazin-2-yl)benzonitrile], the IC50 on IKKε came to 1 nM; at hJAK2, 249 nM; on TBK1 it was 2 nM.

With `C[C@H]1CN(C2COC2)CCN1c1ccc(Nc2ncnc(-c3ccc(O[C@H]4CCN(C(=O)CO)C[C@H]4F)c(C#N)c3)n2)cc1` [Example 244, 2-(((3R,4S)-3-fluoro-1-(2-hydroxyacetyl)piperidin-4-yl)oxy)-5-(4-((4-((S)-2-methyl-4-(oxetan-3-yl)piperazin-1-yl)phenyl)amino)-1,3,5-triazin-2-yl)benzonitrile], the values for the IC50 on IKKε, at hJAK2 and against TBK1 were 1 nM, 191 nM and 3 nM, respectively.

Turning to `C[C@H](O)C(=O)N1CC[C@H](Oc2ccc(-c3ncnc(Nc4ccc(N5CCN(C6COC6)[C@H](C)C5)cc4)n3)cc2C#N)C(F)(F)C1` [Example 246, 2-(((S)-3,3-difluoro-1-((S)-2-hydroxypropanoyl)piperidin-4-yl)oxy)-5-(4-((4-((R)-3-methyl-4-(oxetan-3-yl)piperazin-1-yl)phenyl)amino)-1,3,5-triazin-2-yl)benzonitrile], the 50% inhibitory concentration (IC50) at IKKε amounted to 1 nM; on hJAK2, 181 nM; against TBK1, 2 nM.

One may read the IC50 as the midpoint of a concentration-inhibition curve.

The record behind these values is patent US10040781B2, “Tank-binding kinase inhibitor compounds” (Gilead Sciences, Inc., priority 2014, dated 2018).
